The values that follow come from patent publication US6440440B1, “Biocidal benzylbiphenyl derivatives” (priority 1998, dated 2002).

Structures can show the parent of a compound that is named as a salt.

Format in all cases: cell-based
The subject of one experiment is Escherichia coli. Nature of the experiment: Primary bacteria screening. The settings on record: test compound concentration 500 μMol in tryptose broth agar, 27° C. On the set-up: key: score: 3 = complete inhibition of growth, 2 = growth partially controlled. The method, then:
(§1) The stock solutions with the test compounds were pipetted into multiwell plates and mixed with warm tryptose broth agar (2.6%) in order to reach a test compound concentration of 500 μMol. The medium was allowed to cool and subsequently inoculated with the bacteria. Wells were placed in an incubator at 27° C. and a relative humidity of 70%. After sufficient growth of the untreated cultures, the test was evaluated.
(§2) 3: complete inhibition of bacterial growth
(§3) 2: bacterial growth partially controlled

In another experiment the test system is Pseudomonas aeruginosa. As to the kind of experiment: Primary bacteria screening. Further details: key: score: 3 = complete inhibition of growth, 2 = growth partially controlled. The settings on record: test compound concentration 500 μMol in tryptose broth agar, 27° C. The method, then: as §1, §2, §3
The subject of the next experiment is Debaryomyces hansenii. As to the kind of experiment: Screening against yeasts. The conditions noted are these: test compound concentration 500 μM. The method, then: as §1, §2, §3
(§4) A number of compounds of formula (I) were also tested in a screening against certain The test conditions are the same as described in biological example C.1. The concentration of the test compound was also 500 μmol, and the scoring system used was also the same.
Debaryomyces hansenii (19)

A further experiment concerns Rhodotorula rubra. As to the kind of experiment: Screening against yeasts. The settings on record: test compound concentration 500 μmol. The method, then:
as §1, §2, §3, §4

For the next experiment, the system named is Sporobolomyces roseus. As to the kind of experiment: Screening against yeasts. The settings on record: test compound concentration 500 μmol. As to the method: as §1, §2, §3, §4
Sporobolomyces roseus (21)

The test system of another experiment is Providencia rettgeri. As to the kind of experiment: Poison plate assay, combinations with BAC. The conditions noted are these: BAC alone 80 μmol. The method, then: Biocidal activity against bacterial/yeast growth was determined with the poison plate assay. To obtain the required concentrations of the test compound, calculated amounts of stock solutions (DMSO) were pipetted into multi-well plates. Tryptose agar (except for Rhodotorula: PDA) was added aseptically and uniform distribution was obtained by shaking. Each plate was inoculated with a bacterial/yeast suspension. After incubation at 27° C. and 70% relative humidity, for a period long enough to allow complete growth of controls, percentage activity as compared to the control was scored.
Possible synergy was investigated using Limpel's formula (Richter, D. L., Pestic. Sci. 1987, 19: 309-315): [formula]
where EC is the expected additive response, or calculated activity, X is the observed percentage control when compound A is applied alone and Y is the observed percentage control when compound B is applied alone. Synergy was considered to occur when the observed effect, or measured activity, of a combination of both compounds was greater than the corresponding EC value.
The table C.7 to C.8 below enumerate the measured and calculated activities of BAC and compounds 20, 42 and 40 when tested as a single test compound or as a combination against Providencia rettgeri. BAC (benzalconium chloride) is a well-bacteride and was tested at a concentration of 40 and 80 μmol. Compounds 20, 40 and 42 were tested at a concentration of 10, 20, 40, 80 and 160 μmol. When a synergistic effect was observed, the “measured” and “calculated” activity are indicated with a bold typeface.

`Cl.Cl.Fc1ccc(-c2ccc(C(c3ccccc3)C3CCN(C4CCNCC4)CC3)cc2)cc1.O` (racemic) [Co. No. 7, (±)-4-[[4′-fluoro(1,1′-biphenyl)-4-yl]phenylmethyl](1,4′-bipiperidine)dihydro-chloride.monohydrate]: the “E. coli (growth inhibition score)” value in the experiment on Escherichia coli is reported as 3. Moreover, in the experiment on Pseudomonas aeruginosa, the “P. aeruginosa (growth inhibition score)” value is on record as 3. In addition, the “Test yeast (19) Debaryomyces hansenii (score)” value in the experiment on Debaryomyces hansenii turned out to be 3. Moreover, the “Test yeast (20) Rhodotorula rubra (score)” value in the experiment with Rhodotorula rubra came out at 2. Further, the “Test yeast (21) Sporobolomyces roseus (score)” value with Sporobolomyces roseus stood at 3.
As for `CN(C)CCC1CCN(CCC(O)(c2ccc(-c3ccccc3)cc2)c2ccc(Cl)cc2Cl)CC1.Cl.Cl` (racemic) [Co. No. 34, (±)-α-[(1,1 ′-biphenyl)-4-yl]-a-(2,4-dichlorophenyl)-4-[2-(dimethylamino)ethyl]-1-piperidine-propanol dihydrochloride], the “E. coli (growth inhibition score)” value with Escherichia coli is 1. Further, the “P. aeruginosa (growth inhibition score)” value with Pseudomonas aeruginosa is listed as 1.
As to `CN(C)CCCN(C)CCC(c1ccccc1)c1ccc(-c2ccccc2)cc1` (racemic) [Co. No. 38, (±)-N-[3-[(1,1′-biphenyl)-4-yl]-3-phenylpropyl]-N,N′,N′-trimethylpropanediamine], the “E. coli (growth inhibition score)” value with Escherichia coli amounted to 1. Further, the “P. aeruginosa (growth inhibition score)” value in the experiment on Pseudomonas aeruginosa came out at 1.
Take `CNCCCN(C)CCCN(C)C(c1ccccc1)c1ccc(-c2ccccc2)cc1` (racemic) [Co. No. 52, (±)-N-[[(1,1′-biphenyl)4-yl]phenylmethyl]-N,N′-dimethyl-N′-[3-(methylamino)propyl]-1,3-propanediamine trihydrochloride]: the “E. coli (growth inhibition score)” value in the experiment on Escherichia coli amounted to 3. Also, the “P. aeruginosa (growth inhibition score)” value with Pseudomonas aeruginosa is listed as 1. Further, the “Test yeast (19) Debaryomyces hansenii (score)” value in the experiment with Debaryomyces hansenii came to 3. Besides, the “Test yeast (20) Rhodotorula rubra (score)” value in the experiment with Rhodotorula rubra was 3. The “Test yeast (21) Sporobolomyces roseus (score)” value in the experiment with Sporobolomyces roseus is listed as 3.
`CNCCNCCC(c1ccccc1)c1ccc(-c2ccccc2)cc1.Cl.Cl` (racemic) [Co. No. 56, (±)-N-[3-([1,1′-biphenyl]-4-yl)-3-phenylpropyl]-N′-methyl-1,2-ethanediamine dihydrochloride]: the “E. coli (growth inhibition score)” value in the experiment with Escherichia coli was 3. Also, the “P. aeruginosa (growth inhibition score)” value in the experiment on Pseudomonas aeruginosa came to 1.
For the molecule `NCCCNCCC(c1ccccc1)c1ccc(-c2ccccc2)cc1.NCCCNCCC(c1ccccc1)c1ccc(-c2ccccc2)cc1.O=C(O)C(O)C(O)C(=O)O.O=C(O)C(O)C(O)C(=O)O.O=C(O)C(O)C(O)C(=O)O` (single isomer, unassigned) [compound 69], the “E. coli (growth inhibition score)” value with Escherichia coli was found to be 3. The “P. aeruginosa (growth inhibition score)” value in the experiment on Pseudomonas aeruginosa worked out at 1.
The corresponding values for `NCCCN1CCC(C(c2ccccc2)c2ccc(-c3ccccc3)cc2)CC1.NCCCN1CCC(C(c2ccccc2)c2ccc(-c3ccccc3)cc2)CC1.O.O.O=C(O)C(O)C(O)C(=O)O.O=C(O)C(O)C(O)C(=O)O.O=C(O)C(O)C(O)C(=O)O` (single isomer, unassigned) [compound 84] are 3 and 3.
For the molecule `CC(C)O.Cl.Cl.Fc1ccc(C(=C2CCN(C3CCNCC3)CC2)c2ccc(-c3ccccc3)cc2)cc1` [Co. No. 2, 4-[[(1,1′-biphenyl)-4-yl](4-fluorophenyl)methylen](1,4′-bipiperidine)dihydrochloride 2-propanolate (1:1)], the “E. coli (growth inhibition score)” value with Escherichia coli amounted to 3. In addition, in the experiment on Pseudomonas aeruginosa, the “P. aeruginosa (growth inhibition score)” value was 1.
In the case of `Cl.Cl.NCCCN1CCC(C(c2ccccc2)c2ccc(-c3ccccc3)cc2)CC1.O.O.O.O` (stereo not shown) [Co. No. 78, (A)-4-[([1,1′-biphenyl]-4-yl)phenylmethyl]-1-piperidinepropanamine dihydrochloride tetrahydrate], the “E. coli (growth inhibition score)” value in the experiment with Escherichia coli was determined as 3. Besides, the “P. aeruginosa (growth inhibition score)” value in the experiment on Pseudomonas aeruginosa is 3.
For `Fc1ccc(C(=C2CCN(C3CCNCC3)CC2)c2ccc(-c3ccc(F)cc3)cc2)cc1.O=C(O)/C=C/C(=O)O.O=C(O)/C=C/C(=O)O` [compound 1], the “E. coli (growth inhibition score)” value with Escherichia coli came to 3. For the same molecule, the “P. aeruginosa (growth inhibition score)” value with Pseudomonas aeruginosa is 1.
Take `Cl.Cl.c1ccc(C(=C2CCN(C3CCNCC3)CC2)c2ccc(-c3ccccc3)cc2)cc1` [compound 3]: the “E. coli (growth inhibition score)” value with Escherichia coli is 1. In the experiment on Pseudomonas aeruginosa, the “P. aeruginosa (growth inhibition score)” value is listed as 1.
As for `Cl.Fc1ccc(-c2ccc(C(=C3CCN(C4CCNCC4)CC3)c3ccccc3)cc2)cc1` [compound 5], in the experiment on Escherichia coli, the “E. coli (growth inhibition score)” value is given as 2. Also, the “P. aeruginosa (growth inhibition score)” value in the experiment on Pseudomonas aeruginosa amounted to 1.
Regarding `Cl.Cl.Fc1ccc(-c2ccc(C(c3ccc(Cl)cc3)C3CCN(C4CCNCC4)CC3)cc2)cc1` (stereo not shown) [compound 8], in the experiment with Escherichia coli, the “E. coli (growth inhibition score)” value is on record as 3. The “P. aeruginosa (growth inhibition score)” value in the experiment on Pseudomonas aeruginosa was found to be 3.
As to `O=S(=O)(O)c1ccc(-c2ccc(C(c3ccc(S(=O)(=O)O)cc3)C3CCN(C4CCNCC4)CC3)cc2)cc1` (stereo not shown) [compound 10], the “E. coli (growth inhibition score)” value with Escherichia coli turned out to be 1. The “P. aeruginosa (growth inhibition score)” value with Pseudomonas aeruginosa came to 1.
With `CN(C)CCCN1CCC(N2CCC(C(c3ccccc3)c3ccc(-c4ccccc4)cc3)CC2)CC1.Cl.Cl.Cl` (stereo not shown) [compound 15], in the experiment on Escherichia coli, the “E. coli (growth inhibition score)” value was determined as 1. Moreover, the “P. aeruginosa (growth inhibition score)” value with Pseudomonas aeruginosa worked out at 1.
Turning to `CN1CCC(N2CCC(C(c3ccccc3)c3ccc(-c4ccccc4)cc3)CC2)CC1` (stereo not shown) [compound 19], the “E. coli (growth inhibition score)” value in the experiment with Escherichia coli was 1. In addition, in the experiment on Pseudomonas aeruginosa, the “P. aeruginosa (growth inhibition score)” value is listed as 1.
Turning to `CN(C)CCC1CCN(CC=C(c2ccccc2)c2ccc(-c3ccccc3)cc2)CC1.Cl.Cl` [compound 24], in the experiment on Escherichia coli, the “E. coli (growth inhibition score)” value stood at 1. In addition, the “P. aeruginosa (growth inhibition score)” value with Pseudomonas aeruginosa stood at 1.
With `CN(C)CCC1CCN(CCC(c2ccccc2)c2ccc(-c3ccccc3)cc2)CC1.Cl.Cl` (stereo not shown) [compound 28], the “E. coli (growth inhibition score)” value with Escherichia coli worked out at 1. In addition, the “P. aeruginosa (growth inhibition score)” value in the experiment with Pseudomonas aeruginosa is given as 1.
As to `CN(C)C1CCN(CCC(c2ccccc2)c2ccc(-c3ccccc3)cc2)CC1` (stereo not shown) [compound 32], the “E. coli (growth inhibition score)” value in the experiment with Escherichia coli is reported as 1. Further, the “P. aeruginosa (growth inhibition score)” value in the experiment with Pseudomonas aeruginosa is reported as 1.
For `CN(C)CCCN(C)CC=C(c1ccccc1)c1ccc(-c2ccccc2)cc1` [compound 35], the “E. coli (growth inhibition score)” value in the experiment on Escherichia coli is 3. Further, the “P. aeruginosa (growth inhibition score)” value with Pseudomonas aeruginosa is 1.
On the same counts, the results for `CN(C)CCCNCC=C(c1ccccc1)c1ccc(-c2ccccc2)cc1` [compound 36] are 1 and 1.
`CN(C)CCNCC=C(c1ccccc1)c1ccc(-c2ccccc2)cc1` [compound 37]: the “E. coli (growth inhibition score)” value with Escherichia coli came out at 1. For the same molecule, the “P. aeruginosa (growth inhibition score)” value with Pseudomonas aeruginosa is listed as 1.
As to `CC(C)O.Cl.Cl.Cl.O.c1ccc(-c2ccc(C(c3ccccc3)C3CCN(C4CCN(C5CCNCC5)CC4)CC3)cc2)cc1` (stereo not shown) [compound 44], in the experiment on Escherichia coli, the “E. coli (growth inhibition score)” value is reported as 3. The “P. aeruginosa (growth inhibition score)” value with Pseudomonas aeruginosa worked out at 1.
`Cl.c1ccc(-c2ccc(C(c3ccccc3)N3CCC(N4CCCCC4)CC3)cc2)cc1` (stereo not shown) [compound 45]: the “E. coli (growth inhibition score)” value with Escherichia coli worked out at 1. Moreover, the “P. aeruginosa (growth inhibition score)” value in the experiment with Pseudomonas aeruginosa was 1.
Regarding `CN(C1CCN(C2CCNCC2)CC1)C(c1ccccc1)c1ccc(-c2ccccc2)cc1.O.O` (stereo not shown) [compound 48], in the experiment with Escherichia coli, the “E. coli (growth inhibition score)” value worked out at 1. Also, the “P. aeruginosa (growth inhibition score)” value in the experiment on Pseudomonas aeruginosa turned out to be 1.
`CN(CCCN)CCCNC(c1ccccc1)c1ccc(-c2ccccc2)cc1.O=C(O)C(=O)O.O=C(O)C(=O)O.O=C(O)C(=O)O` (stereo not shown) [compound 53]: the “E. coli (growth inhibition score)” value with Escherichia coli is on record as 3. Also, the “P. aeruginosa (growth inhibition score)” value in the experiment with Pseudomonas aeruginosa came out at 1.
Consider `CN(C)CCCN(C)CCCN(C)C(c1ccccc1)c1ccc(-c2ccccc2)cc1.Cl.Cl.Cl.O` (stereo not shown) [compound 54], for which the “E. coli (growth inhibition score)” value in the experiment on Escherichia coli was determined as 3. Further, the “P. aeruginosa (growth inhibition score)” value in the experiment on Pseudomonas aeruginosa turned out to be 1.
For the molecule `NCCCNCCC(c1ccccc1)c1ccc(-c2ccccc2)cc1.NS(=O)(=O)O.NS(=O)(=O)O` (stereo not shown) [compound 67], in the experiment with Escherichia coli, the “E. coli (growth inhibition score)” value is given as 3. In the experiment with Pseudomonas aeruginosa, the “P. aeruginosa (growth inhibition score)” value is 2.
On the same counts, the results for `CN(CCN)CCC(c1ccccc1)c1ccc(-c2ccccc2)cc1.O=c1[nH]sc2ccccc12` (stereo not shown) [compound 73] are 3 and 3.
`CN(C1CCNCC1)C1CCN(CCC(c2ccccc2)c2ccc(-c3ccccc3)cc2)CC1.Cl.Cl.Cl.O.O.O` (stereo not shown) [compound 89]: in the experiment on Escherichia coli, the “E. coli (growth inhibition score)” value is 3. Further, the “P. aeruginosa (growth inhibition score)” value with Pseudomonas aeruginosa stood at 1.
In the case of “benzalconium chloride [BAC, reference compound]”, the Measured activity in the experiment with Providencia rettgeri is 100%.
